The supplement of paper PMC10307832

Key:
Assay in all cases: relative viability (nuclei count vs DMSO), 5 days (fraction); higher = more cells survive
Mirin + Decitabine = compound: N=C1NC(=O)/C(=C/c2ccc(O)cc2)S1 [Mirin] + Nc1ncn([C@H]2C[C@H](O)[C@@H](CO)O2)c(=O)n1 [Decitabine] (partner 2 µM)
Outline: (§1)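 Lung cancer cell lines were seeded in 1536-well plates and dosed by pin tool the next day, with either a single drug or a fixed anchor-drug dose combined with five library-drug doses (not always all listed) spaced in √10 steps. Five days later, one step fixed the cells and stained their nuclei (final 0.05% Triton X-100, 1% formaldehyde, 1 ug/ml Hoechst), and nuclei were counted on 4× images. Relative viability is the nuclei count in treated wells divided by the count in vehicle wells, and each value is the median of duplicate plates.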

[1] = compound: CCn1c(-c2nonc2N)nc2cnc(Oc3cccc(NC(=O)c4ccc(OCCN5CCOCC5)cc4)c3)cc21 + N=C(N)NC(=N)NCCc1ccccc1 [Phenformin] (partner 250 µM)
Outline: as §1

[2] = compound: CCn1c(-c2nonc2N)nc2cnc(Oc3cccc(NC(=O)c4ccc(OCCN5CCOCC5)cc4)c3)cc21 + Cc1nc(Nc2ncc(C(=O)Nc3c(C)cccc3Cl)s2)cc(N2CCN(CCO)CC2)n1 [Dasatinib] (partner 0.075 µM)
Outline: as §1

[3] = compound: CCn1c(-c2nonc2N)nc2cnc(Oc3cccc(NC(=O)c4ccc(OCCN5CCOCC5)cc4)c3)cc21 + NC(=O)Nc1cc(-c2cccc(F)c2)sc1C(=O)N[C@H]1CCCNC1 [AZD7762] (partner 0.2 µM)
Outline: as §1

Cell Line: LXF-289
- relative viability (Mirin + Decitabine; first compound 0.25 µM): 0.347
- relative viability (Mirin + Decitabine; first compound 0.7906 µM): 0.394
- relative viability (Mirin + Decitabine; first compound 2.5 µM): 0.335
- relative viability (Mirin + Decitabine; first compound 7.906 µM): 0.347
- relative viability (Mirin + Decitabine; first compound 25 µM): 0.387
- relative viability ([1]; first compound 0.04 µM): 0.554
- relative viability ([1]; first compound 0.1265 µM): 0.526
- relative viability ([1]; first compound 0.4 µM): 0.361
- relative viability ([1]; first compound 1.265 µM): 0.334
- relative viability ([1]; first compound 4 µM): 0.341
- relative viability ([2]; first compound 0.04 µM): 0.158
- relative viability ([2]; first compound 0.1265 µM): 0.111
- relative viability ([2]; first compound 0.4 µM): 0.0564
- relative viability ([2]; first compound 1.265 µM): 0.0848
- relative viability ([2]; first compound 4 µM): 0.0678
- relative viability ([3]; first compound 0.04 µM): 1.19
- relative viability ([3]; first compound 0.1265 µM): 1.23
- relative viability ([3]; first compound 0.4 µM): 0.638
- relative viability ([3]; first compound 1.265 µM): 0.506
- relative viability ([3]; first compound 4 µM): 0.224

Cell Line: NCI-H23
- relative viability (Mirin + Decitabine; first compound 0.25 µM): 0.298
- relative viability (Mirin + Decitabine; first compound 2.5 µM): 0.292
- relative viability (Mirin + Decitabine; first compound 7.906 µM): 0.295
- relative viability (Mirin + Decitabine; first compound 25 µM): 0.284
- relative viability ([1]; first compound 0.04 µM): 0.879
- relative viability ([1]; first compound 0.1265 µM): 0.798
- relative viability ([1]; first compound 0.4 µM): 0.662
- relative viability ([1]; first compound 1.265 µM): 0.61
- relative viability ([1]; first compound 4 µM): 0.532
- relative viability ([2]; first compound 0.04 µM): 0.927
- relative viability ([2]; first compound 0.1265 µM): 0.758
- relative viability ([2]; first compound 0.4 µM): 0.294
- relative viability ([2]; first compound 1.265 µM): 0.611
- relative viability ([2]; first compound 4 µM): 0.543
- relative viability ([3]; first compound 0.04 µM): 0.453
- relative viability ([3]; first compound 0.1265 µM): 0.277
- relative viability ([3]; first compound 0.4 µM): 0.229
- relative viability ([3]; first compound 1.265 µM): 0.115
- relative viability ([3]; first compound 4 µM): 0.151

Cell Line: NCI-H322M
- relative viability (Mirin + Decitabine; first compound 0.25 µM): 0.674
- relative viability (Mirin + Decitabine; first compound 0.7906 µM): 0.712
- relative viability (Mirin + Decitabine; first compound 2.5 µM): 0.725
- relative viability (Mirin + Decitabine; first compound 7.906 µM): 0.705
- relative viability (Mirin + Decitabine; first compound 25 µM): 0.614
- relative viability ([1]; first compound 0.04 µM): 1.12
- relative viability ([1]; first compound 0.1265 µM): 0.982
- relative viability ([1]; first compound 0.4 µM): 0.632
- relative viability ([1]; first compound 1.265 µM): 0.557
- relative viability ([1]; first compound 4 µM): 0.579
- relative viability ([2]; first compound 0.04 µM): 0.255
- relative viability ([2]; first compound 0.1265 µM): 0.216
- relative viability ([2]; first compound 0.4 µM): 0.231
- relative viability ([2]; first compound 1.265 µM): 0.274
- relative viability ([2]; first compound 4 µM): 0.259
- relative viability ([3]; first compound 0.04 µM): 0.587
- relative viability ([3]; first compound 0.1265 µM): 0.556
- relative viability ([3]; first compound 0.4 µM): 0.561
- relative viability ([3]; first compound 1.265 µM): 0.496
- relative viability ([3]; first compound 4 µM): 0.445

Cell Line: NCI-H358
- relative viability (Mirin + Decitabine; first compound 0.25 µM): 0.238
- relative viability (Mirin + Decitabine; first compound 0.7906 µM): 0.194
- relative viability (Mirin + Decitabine; first compound 2.5 µM): 0.242
- relative viability (Mirin + Decitabine; first compound 7.906 µM): 0.169
- relative viability (Mirin + Decitabine; first compound 25 µM): 0.177
- relative viability ([1]; first compound 0.04 µM): 0.352
- relative viability ([1]; first compound 0.1265 µM): 0.295
- relative viability ([1]; first compound 0.4 µM): 0.224
- relative viability ([1]; first compound 1.265 µM): 0.27
- relative viability ([1]; first compound 4 µM): 0.198
- relative viability ([2]; first compound 0.04 µM): 0.162
- relative viability ([2]; first compound 0.1265 µM): 0.195
- relative viability ([2]; first compound 0.4 µM): 0.169
- relative viability ([2]; first compound 1.265 µM): 0.219
- relative viability ([2]; first compound 4 µM): 0.141
- relative viability ([3]; first compound 0.04 µM): 0.517
- relative viability ([3]; first compound 0.1265 µM): 0.56
- relative viability ([3]; first compound 0.4 µM): 0.329
- relative viability ([3]; first compound 1.265 µM): 0.293
- relative viability ([3]; first compound 4 µM): 0.337

Cell Line: NCI-H441
- relative viability (Mirin + Decitabine; first compound 0.25 µM): 0.251
- relative viability (Mirin + Decitabine; first compound 0.7906 µM): 0.259
- relative viability (Mirin + Decitabine; first compound 2.5 µM): 0.244
- relative viability (Mirin + Decitabine; first compound 7.906 µM): 0.217
- relative viability (Mirin + Decitabine; first compound 25 µM): 0.218
- relative viability ([1]; first compound 0.04 µM): 0.89
- relative viability ([1]; first compound 0.1265 µM): 0.96
- relative viability ([1]; first compound 1.265 µM): 0.654
- relative viability ([1]; first compound 4 µM): 0.623
- relative viability ([2]; first compound 0.04 µM): 0.635
- relative viability ([2]; first compound 0.1265 µM): 0.683
- relative viability ([2]; first compound 1.265 µM): 0.685
- relative viability ([2]; first compound 4 µM): 0.549
- relative viability ([3]; first compound 0.04 µM): 1.34
- relative viability ([3]; first compound 0.1265 µM): 1.05
- relative viability ([3]; first compound 0.4 µM): 1.21
- relative viability ([3]; first compound 1.265 µM): 0.961
- relative viability ([3]; first compound 4 µM): 0.698

Cell Line: NCI-H460
- relative viability (Mirin + Decitabine; first compound 0.25 µM): 0.517
- relative viability (Mirin + Decitabine; first compound 0.7906 µM): 0.504
- relative viability (Mirin + Decitabine; first compound 2.5 µM): 0.467
- relative viability (Mirin + Decitabine; first compound 7.906 µM): 0.505
- relative viability (Mirin + Decitabine; first compound 25 µM): 0.539
- relative viability ([1]; first compound 0.04 µM): 0.664
- relative viability ([1]; first compound 0.1265 µM): 0.432
- relative viability ([1]; first compound 0.4 µM): 0.295
- relative viability ([1]; first compound 1.265 µM): 0.0979
- relative viability ([1]; first compound 4 µM): 0.0635
- relative viability ([2]; first compound 0.04 µM): 0.467
- relative viability ([2]; first compound 0.1265 µM): 0.288
- relative viability ([2]; first compound 0.4 µM): 0.154
- relative viability ([2]; first compound 1.265 µM): 0.136
- relative viability ([2]; first compound 4 µM): 0.112
- relative viability ([3]; first compound 0.04 µM): 0.712
- relative viability ([3]; first compound 0.1265 µM): 0.465
- relative viability ([3]; first compound 0.4 µM): 0.148
- relative viability ([3]; first compound 1.265 µM): 0.0565
- relative viability ([3]; first compound 4 µM): 0.0732

Cell Line: NCI-H522
- relative viability (Mirin + Decitabine; first compound 0.25 µM): 0.576
- relative viability (Mirin + Decitabine; first compound 0.7906 µM): 0.611
- relative viability (Mirin + Decitabine; first compound 2.5 µM): 0.668
- relative viability (Mirin + Decitabine; first compound 7.906 µM): 0.654
- relative viability (Mirin + Decitabine; first compound 25 µM): 0.524
- relative viability ([1]; first compound 0.04 µM): 0.561
- relative viability ([1]; first compound 0.1265 µM): 0.613
- relative viability ([1]; first compound 0.4 µM): 0.6
- relative viability ([1]; first compound 1.265 µM): 0.522
- relative viability ([1]; first compound 4 µM): 0.507
- relative viability ([2]; first compound 0.04 µM): 0.735
- relative viability ([2]; first compound 0.1265 µM): 0.797
- relative viability ([2]; first compound 0.4 µM): 0.656
- relative viability ([2]; first compound 1.265 µM): 0.614
- relative viability ([2]; first compound 4 µM): 0.667
- relative viability ([3]; first compound 0.04 µM): 0.697
- relative viability ([3]; first compound 0.1265 µM): 0.821
- relative viability ([3]; first compound 0.4 µM): 0.549
- relative viability ([3]; first compound 1.265 µM): 0.689
- relative viability ([3]; first compound 4 µM): 0.474

Cell Line: NCI-H596
- relative viability (Mirin + Decitabine; first compound 0.25 µM): 1.03
- relative viability (Mirin + Decitabine; first compound 0.7906 µM): 1.2
- relative viability (Mirin + Decitabine; first compound 2.5 µM): 1
- relative viability (Mirin + Decitabine; first compound 7.906 µM): 0.993
- relative viability (Mirin + Decitabine; first compound 25 µM): 0.998
- relative viability ([1]; first compound 0.04 µM): 0.898
- relative viability ([1]; first compound 0.1265 µM): 0.77
- relative viability ([1]; first compound 0.4 µM): 0.598
- relative viability ([1]; first compound 1.265 µM): 0.531
- relative viability ([1]; first compound 4 µM): 0.661
- relative viability ([2]; first compound 0.04 µM): 0.682
- relative viability ([2]; first compound 0.1265 µM): 0.611
- relative viability ([2]; first compound 0.4 µM): 0.495
- relative viability ([2]; first compound 1.265 µM): 0.469
- relative viability ([2]; first compound 4 µM): 0.546
- relative viability ([3]; first compound 0.04 µM): 1.23
- relative viability ([3]; first compound 0.1265 µM): 0.926
- relative viability ([3]; first compound 0.4 µM): 0.941
- relative viability ([3]; first compound 1.265 µM): 0.762
- relative viability ([3]; first compound 4 µM): 0.9
